Experimental findings from ChEMBL document CHEMBL1201862, “PubChem BioAssay data set” (2004) are described below.

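Dose response: 5 concentrations. Exposure: 48 h. Format: 96-well plates. Endpoint: linear interpolation; highest concentration if not reached. GI50 = concentration required for 50% inhibition of growth.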 The source made the active and inactive calls. Cut-off read from the data, not from the text of the source: active = GI50 up to about 1.1 µM and inactive = higher. Some results are limits rather than exact numbers.

Common to all, as to assay: NCI anticancer screen, dose series, 48 h
Assay [1] deals with SK-MEL-2.
For assay [2], the system named is OVCAR-3.
The subject of assay [3] is HCT-15.
Assay [4] deals with OVCAR-4.
The test system of assay [5] is HOP-62.
Assay [6] has as its system OVCAR-8.
Assay [7] deals with UO-31.
The subject of assay [8] is SF-539.
In assay [9] the test system is LOX IMVI.
Assay [10] deals with M14.
Assay [11] concerns HCC 2998.
The test system of assay [12] is 786-0.
For assay [13], the system named is T47D.
Assay [14] relates to HT-29.
For assay [15], the system named is SNB-75.
In assay [16] the test system is SR.
The subject of assay [17] is PC-3.
Assay [18] has as its system IGROV-1.
Assay [19] deals with SK-MEL-28.

Regarding `COc1cc2c(c3c1c(=O)c1ccccc1n3C)C=C([N+](=O)[O-])C(C)(C)O2`, the GI50 in assay [1] was 0.0991 µM (active); in assay [2], > 100 µM (inactive); in [3], 0.355 µM; in assay [4] it was > 100 µM (inactive); in assay [5], 30.9 µM (inactive); in assay [6], 0.532 µM (active). Moreover, the GI50 in assay [7] is 0.421 µM (active); in assay [8] it was 1.36 µM (inactive); in assay [9], 0.138 µM (active); in [10], 0.157 µM (active); in [11], 0.325 µM (active); in [12], 0.328 µM (active). Also, the GI50 in [13] is > 100 µM (inactive); in assay [14], 0.522 µM (active); in [15], 13.2 µM (inactive); in assay [16] it was 0.124 µM (active); in assay [17], > 100 µM (inactive); in assay [18] it was 0.575 µM (active).
Consider `O=S(=O)(Nc1nccs1)c1ccc(Nc2nc(-c3cccs3)nc3ccc(I)cc23)cc1`, for which the GI50 in [1] is 38.5 µM (inactive); in [19], 21.4 µM (inactive); in assay [2], 14.2 µM (inactive); in [3], 32.1 µM; in assay [4], 26.9 µM (inactive); in assay [5] it was 16.3 µM (inactive). The GI50 in assay [6] was 22.2 µM (inactive); in assay [7] it was 17 µM (inactive); in [8], 17.8 µM (inactive); in [9] it was 14.6 µM (inactive); in assay [10], 22.4 µM (inactive); in assay [11] it was 13.2 µM (inactive). Further, the GI50 was 15.5 µM (inactive) in [12]; 8.43 µM (inactive) in [13]; 18.7 µM (inactive) in assay [14]; 36.4 µM (inactive) in assay [15]; 22.9 µM (inactive) in assay [16]; 5.12 µM (inactive) in assay [17]. For the same compound, the GI50 in [18] is 17.4 µM (inactive).
Turning to `OC(C/C(=N\N1CCCCC1)c1cccs1)(C(F)(F)F)C(F)(F)F`, the GI50 in [1] was > 10 µM (inactive); in assay [19], > 10 µM (inactive); in [2], > 10 µM (inactive); in [3], more than 10 µM; in [4] it was > 10 µM (inactive); in assay [5], > 10 µM (inactive). Also, the GI50 in assay [6], in assay [7], in assay [8], in assay [9], in assay [10] and in assay [11] was > 10 µM (inactive) in each case. The GI50 in assay [12], in [13], in assay [14], in [15], in assay [16] and in assay [17] was > 10 µM (inactive) in each case. For the same compound, the GI50 in [18] was > 10 µM (inactive).
Consider `COc1cn2c(cc1=O)COc1ccc(-c3ccccc3)cc1-2`, for which the GI50 is > 100 µM (inactive) in assay [1]; > 100 µM (inactive) in assay [19]; > 55.7 µM (inactive) in assay [2]; 54.5 µM in assay [3]; > 85.1 µM (inactive) in assay [4]; 83.6 µM (inactive) in assay [5]. For the same compound, the GI50 is > 76.4 µM (inactive) in assay [6]; 28.4 µM (inactive) in assay [7]; 36.9 µM (inactive) in assay [9]; 45.4 µM (inactive) in [10]; 46.9 µM (inactive) in [11]; > 88.1 µM (inactive) in assay [12]. Further, the GI50 is 20.5 µM (inactive) in assay [13]; 45.4 µM (inactive) in assay [14]; 35.8 µM (inactive) in [15]; 15.2 µM (inactive) in assay [16]; 43.2 µM (inactive) in assay [17]; 38.8 µM (inactive) in [18].
On to `O=C1C(Cl)=C(N2CCN(CCOCCO)CC2)C(=O)c2ncccc21`, for which the GI50 in [1] was > 10 µM (inactive); in assay [19], > 10 µM (inactive); in [2] it was > 10 µM (inactive); in [3] it was more than 10 µM; in assay [4] it was > 10 µM (inactive); in [5], > 10 µM (inactive). The GI50 in assay [6], in assay [8], in assay [9], in assay [10], in assay [11] and in assay [12] was > 10 µM (inactive) throughout. Besides, the GI50 in assay [13] was 2.23 µM (inactive); in [14] it was > 10 µM (inactive); in [15], > 10 µM (inactive); in assay [16] it was > 10 µM (inactive); in assay [17] it was > 10 µM (inactive); in assay [18], > 10 µM (inactive).
As to `Cc1ccc(S(=O)(=O)NC(=O)Nc2nc[nH]n2)cc1`, the GI50 was > 100 µM (inactive) in [1]; > 100 µM (inactive) in assay [19]; > 100 µM (inactive) in assay [2]; more than 100 µM in assay [3]; > 100 µM (inactive) in [4]; > 100 µM (inactive) in assay [5]. Also, the GI50 in assay [6], in assay [7], in [8], in [10], in assay [11] and in assay [12] was > 100 µM (inactive) each time. For the same compound, the GI50 in assay [13], in assay [14], in assay [15], in [16], in assay [17] and in assay [18] was > 100 µM (inactive) in each case.
As to `Cc1c(C)c2c(c(N)c1C#N)C(=O)N(O)C2=O`, the GI50 in assay [1] was > 100 µM (inactive); in assay [19], > 100 µM (inactive); in assay [2], > 100 µM (inactive); in assay [3], more than 100 µM; in assay [4], > 100 µM (inactive); in assay [6], > 100 µM (inactive). Also, the GI50 in assay [7], in assay [8], in assay [10], in [11], in assay [12] and in [13] was > 100 µM (inactive) each time. The GI50 in [14] is > 100 µM (inactive); in assay [15] it was 45.2 µM (inactive); in [16] it was > 100 µM (inactive); in [17] it was > 100 µM (inactive); in assay [18] it was > 100 µM (inactive).
As to `COc1ccc2c(=O)c3ccoc3[nH]c2c1`, the GI50 was > 100 µM (inactive) in assay [1]; > 100 µM (inactive) in [19]; more than 100 µM in [3]; > 100 µM (inactive) in [4]; > 100 µM (inactive) in assay [5]; > 100 µM (inactive) in assay [6]. The GI50 in [7], in [8], in assay [9], in [10], in assay [11] and in assay [12] was > 100 µM (inactive) each time. Besides, the GI50 in assay [13], in assay [14], in [15], in assay [16], in assay [17] and in [18] was > 100 µM (inactive) in each case.
For the compound `CCC(=O)Nc1cccc(NC(=O)c2c(Cl)c(Cl)c(Cl)c(Cl)c2-c2nc3ccccc3[nH]2)c1`, the GI50 in [1] is > 100 µM (inactive); in [19], > 100 µM (inactive); in assay [2], > 100 µM (inactive); in assay [3] it was 60.7 µM; in assay [4], 71.6 µM (inactive); in [6], > 100 µM (inactive). Further, the GI50 in assay [7] is 21.7 µM (inactive); in assay [8], > 100 µM (inactive); in [9], 77.4 µM (inactive); in assay [10] it was 29 µM (inactive); in [11], 49.7 µM (inactive); in assay [12], 84.9 µM (inactive). Further, the GI50 is 7.82 µM (inactive) in assay [13]; 66.2 µM (inactive) in [14]; 3.94 µM (inactive) in assay [15]; 17.6 µM (inactive) in assay [16]; 44.8 µM (inactive) in [17]; 14.2 µM (inactive) in assay [18].
As for `CN(C)c1ccc(/C=C(\NC(=O)c2ccccc2)C(=O)NCC(=O)O)cc1`, the GI50 in assay [1] is > 100 µM (inactive); in assay [19], > 100 µM (inactive); in assay [2] it was > 100 µM (inactive); in assay [3], more than 100 µM; in assay [5], > 100 µM (inactive); in [6], > 100 µM (inactive). Moreover, the GI50 in [7], in assay [8], in assay [9], in assay [10], in assay [11] and in assay [12] was > 100 µM (inactive) in each case. Further, the GI50 in assay [13], in assay [14], in [15], in assay [16], in assay [17] and in assay [18] was > 100 µM (inactive) in each case.
Consider `O=C1C(Cl)=C(NCCF)C(=O)c2ncccc21`, for which the GI50 was 1.68 µM (inactive) in assay [1]; 1.87 µM (inactive) in assay [19]; 2.03 µM (inactive) in [2]; 2.08 µM in assay [3]; 2.04 µM (inactive) in assay [5]; 2.03 µM (inactive) in assay [6]. The GI50 in [7] is 1.32 µM (inactive); in assay [8] it was 1.81 µM (inactive); in assay [9], 0.724 µM (active); in assay [10], 1.61 µM (inactive); in assay [11], 1.36 µM (inactive); in assay [12] it was 1.82 µM (inactive). Besides, the GI50 in [13] was 2.2 µM (inactive); in assay [14], 2.97 µM (inactive); in [15], 1.29 µM (inactive); in assay [16], 9.38 µM (inactive); in assay [17], 1.58 µM (inactive); in assay [18], 1.95 µM (inactive).
